According to ChEMBL document CHEMBL3045989, “The Veratrum alkaloids jervine, veratramine, and their analogues as prostate cancer migration and proliferation inhibitors: biological evaluation and pharmacophore modeling” (Med Chem Res, 2013):
Activity calls are given as the source filed them. The calls are words filed in the database; no cut-off is given here.

Experiments:
Format in all cases: functional, cell-based
[1] = system: PC-3; test: Antimigratory activity against Homo sapiens (human) PC3 cells at 50 uM after 24 hr by wound-healing assay
[2] = system: PC-3; test: Antiproliferative activity against Homo sapiens (human) PC3 cells at 50 uM after 72 hr by MTT assay
[3] = system: PC-3; test: Antiproliferative activity against Homo sapiens (human) PC3 cells at 10 uM after 72 hr by MTT assay
[4] = system: PC-3; test: Antiproliferative activity against Homo sapiens (human) PC3 cells at 1 uM after 72 hr by MTT assay
[5] = system: PC-3; test: Antimigratory activity against Homo sapiens (human) PC3 cells at 200 uM after 24 hr by wound-healing assay

SMILES: CC1=C2C(=O)[C@H]3[C@@H](CC[C@H]4C[C@@H](O)C[C@H](O)[C@@]43C)[C@@H]2CC[C@]12O[C@@H]1C[C@H](C)CN[C@H]1[C@H]2C
- Activity [1]: Active
- Activity [2]: inactive

SMILES: Cc1c([C@H](C)[C@@H]2NC[C@@H](C)C[C@H]2O)ccc2c1C[C@H]1[C@H]2CCC2=CC(=O)CC[C@@]21C
- Activity [1]: Active
- Activity [2]: Active
- Activity [3]: Active

SMILES: Cc1c([C@H](C)[C@@H]2NC[C@@H](C)C[C@H]2O)ccc2c1C[C@H]1[C@H]2CC=C2C[C@@H](O)CC[C@@]21C
- Activity [1]: Active
- Activity [2]: Active

SMILES: CC1=C2C(=O)[C@H]3[C@@H](CC=C4C[C@@H](O)CC[C@@]43C)[C@@H]2CC[C@]12O[C@@H]1C[C@H](C)CN[C@H]1[C@H]2C
- Activity [1]: Active
- Activity [2]: Active

SMILES: CC1=C2C(=O)[C@H]3[C@@H](CC=C4C[C@@H](O[C@@H]5O[C@H](CO)[C@@H](O)[C@H](O)[C@H]5O)CC[C@@]43C)[C@@H]2CC[C@]12O[C@@H]1C[C@H](C)CN[C@H]1[C@H]2C
- Activity [1]: inactive
- Activity [2]: inactive

SMILES: Cc1c([C@H](C)[C@@H]2NC[C@@H](C)C[C@H]2O)ccc2c1C[C@H]1[C@H]2CCC2=CC(=O)C=C[C@@]21C
- Activity [1]: Active
- Activity [2]: Active

SMILES: CC1=C2C(=O)[C@H]3[C@@H](CC[C@H]4C[C@@H](O)CC[C@@]43C)[C@@H]2CC[C@]12O[C@@H]1C[C@H](C)CN[C@H]1[C@H]2C
- Activity [1]: inactive
- Activity [2]: Active

SMILES: C/C1=C/C(=O)O[C@@H]2C[C@@H](CC[C@H](C)/C=C\C=C\CC1)O[C@@](O)([C@@H]1CSC(=O)N1)C2
- Activity [4]: Active

SMILES: CC1=C2C(=O)[C@H]3[C@@H](CC=C4CC(=O)CC[C@@]43C)[C@@H]2CC[C@]12O[C@@H]1C[C@H](C)CN[C@H]1[C@H]2C
- Activity [1]: Active
- Activity [2]: Active

SMILES: O=C1NC(=O)/C(=C/c2ccc(O)cc2)N1
- Activity [5]: Active

SMILES: Cc1c([C@H](C)[C@@H]2NC[C@@H](C)C[C@H]2O)ccc2c1C[C@H]1[C@H]2CC[C@H]2CC(=O)CC[C@@]21C
- Activity [1]: Active
- Activity [2]: Active
